Measured values from patent US20120022048A1, “Anti-proliferative substituted pyrazolo[3,4-d]pyrimidines derivatives (SPP) to inhibit immune activation, virus replication and tumor growth” (priority 2010, published 2012).
“Also recorded” adds a separate entry of the source. Read-outs that look alike come from different tables or passages of the source.

Key:
[1] = system: primary human CD4 T-lymphocytes; experiment: Cell hyperproliferation in primary T cells (CFSE staining, mitotic index); assay type: cell-based; settings: for anti-proliferative activity (in words) / mitotic index %: SPPs 10 μM, Imatinib 10 μM; for anti-proliferative activity (in words): compared with HU 100 μM, HU+ddI or untreated control; for Anti-proliferative capacity: class symbol, Table 6; for decrease/inhibition of cell proliferation compared to not treated control: SPPs and Imatinib 10 μM; for decrease/inhibition of cell proliferation compared to not treated control / mitotic index %: HU 100 μM; for mitotic index %: % of not treated control (100%), day 10
Method: We built up an experimental model using primary T cells to study the activity of the compounds on induced hyperproliferation of cells, which is a characteristic of both chronic viral diseases and cancer including HIV and leukemia.
(§1) Unstimulated (quiescent/resting, day 0 to 5) primary human CD4 T-lymphocytes were obtained by magnetic bead separation from healthy, normal donors. After five days in culture, cells were activated with PHA (5 μg/ml) to induce hyperproliferation then, at day 7, IL-2 (20 U/ml) was added (stimulated, day 6 to 10). All available compounds were tested at a concentration of 10 μM. […] At day 10, cells were harvested. Proliferation of T cells, cultured as described above, was studied by staining the cells with carboxyfluorescein diacetate-succinimidyl ester (CFSE) at day 0 (immediately after infection). For data analysis, the mitotic index (M) was used, calculating the sum of mitotic events at each proliferation cycle. To extract a relative number, M was normalized to the total number of cells acquired using the equation M=Σ[(Xn(T)−Xn(T)/2^n)], that gives the number of mitotic events from the experimentally obtained values of the proportion of T cells under each division peak n (Xn) and the total T cells (T). To study the effect of the compounds on apoptosis T cells were cultured as described above and at day 10 cells were stained with Annexin V and 7-AAD, in order to determine the percentage of total apoptotic events.

[2] = system: primary human CD4 T-lymphocytes; experiment: Apoptosis in primary CD4 T cells (Annexin V and 7-AAD staining); assay type: cell-based; settings: for apoptotic effect (in words) / apoptosis %: SPPs 10 μM; for apoptotic effect (in words): compared with HU 100 μM, HU+ddI or untreated control; for apoptosis %: total apoptotic events compared to untreated control, day 10, Imatinib 10 μM, HU 100 μM, ddI 2 μM
Method: as §1
We determined the capacity of the compounds to affect the percentages of apoptotic events after 10 days of treatment in primary CD4 T cells.

HIV-1 NL 4.3 [3] = experiment: HIV-1 replication in quiescent CD4 T cells (p24 Ag ELISA); assay type: cell-based; settings: for inhibition at 10 µM: Human immunodeficiency virus 1, CD4+ T, read-out: reduction of HIV-1 p24 production / inhibition of HIV replication compared to untreated control; for anti-HIV activity in quiescent cells (in words) / HIV quiescent cells (percentage p24 compared to the untreated control): SPPs 10 μM; for anti-HIV activity in quiescent cells (in words): compared with HU 100 μM, HU+ddI or untreated control; for Antiviral activity in quiescent cells: class symbol, Table 6; for HIV quiescent cells (percentage p24 compared to the untreated control): quiescent CD4 T cells, day 10, HU 100 μM, HU 100 μM+ddI 2 μM
Method: Unstimulated (quiescent/resting, day 0 to 5) human CD4 T-lymphocytes, obtained by magnetic bead separation from healthy, normal donors, were infected with HIV-1 NL 4.3. After five days in culture, cells were stimulated with PHA (5 μg/ml) to induce proliferation, and then, at day 7, IL-2 (20 U/ml) was added (stimulated, day 6 to 10). All available compounds were tested at a concentration of 10 μM. HU 100 μM and HU 100 μM+ddI 2 μM were also employed as comparators and the negative control was left untreated. At day 10, cells and supernatants were harvested and HIV-1 p24 Ag was measured by ELISA. HIV replication was expressed as percentage p24 compared to the untreated control.

HIV-1 NL 4.3 [4] = experiment: HIV-1 replication in activated T cells (PBMC, p24 Ag ELISA); assay type: cell-based; settings: for inhibition at 10 µM: Human immunodeficiency virus 1, T-cell, read-out: inhibition of p24 production / HIV replication compared to untreated control; for anti-HIV activity in activated T cells (in words): SPPs 10 μM, compared with HU 100 μM, HU+ddI or untreated control; for Antiviral activity in activated cells: class symbol, Table 6; for HIV activated cells (% p24 compared to not treated control): 7 days, SPPs and Imatinib 10 μM, HU 100 μM, ddI 2 μM
Method: The experimental setup described below allows us to detect direct antiviral activity of a compound.
Human PBMC, obtained from healthy, normal donors, were stimulated for two days with PHA 5 μg/ml. Then cells were infected with HIV-1 NL 4.3, IL-2 was added (20 U/ml), cells were plated (10^5 cells per well in 200 μl) and drug treatment started. […] The control was left untreated. After 7 days of incubation at 37° C. supernatants were harvested and HIV-1 p24 Ag was measured by ELISA.

[5] = system: Human peripheral blood mononuclear cells (PBMC); settings: 7 days
[6] = % of not treated control (100%), SPPs 10 μM, Imatinib 10 μM, HU 100 μM, HU 100 μM+ddI 2 μM

| Structure (SMILES) | anti-proliferative activity (in words) [1] | Anti-proliferative capacity [1] | apoptotic effect (in words) [2] | inhibition at 10 µM (HIV-1 NL 4.3 [3]; quiescent cells, 10 μM) [%] | anti-HIV activity in quiescent cells (in words) (HIV-1 NL 4.3 [3]) | Antiviral activity in quiescent cells (HIV-1 NL 4.3 [3]) | inhibition at 10 µM (HIV-1 NL 4.3 [4]; activated T cells, 10 μM) [%] | anti-HIV activity in activated T cells (in words) (HIV-1 NL 4.3 [4]) | Antiviral activity in activated cells (HIV-1 NL 4.3 [4]) | % viability ([5]; human, 10 μM) [%] | decrease/inhibition of cell proliferation compared to not treated control [1] [%] | other results |
| --- | --- | --- | --- | --- | --- | --- | --- | --- | --- | --- | --- | --- |
| CSc1nc(NCc2ccccc2)c2cnn(CC(Cl)c3ccccc3)c2n1 (stereo not shown) [VS1-003, 1-(2-chloro-2-phenylethyl)-6-(methylthio)-N-benzyl-1H-pyrazolo[3,4-d]pyrimidin-4-amine] | slightly less potent; also recorded: little inferior anti-proliferative capacity compared to HU; also recorded: somewhat less than that of VS1-002 | ++ (good (++, 50 to 70% activity)) | no effect on apoptosis; also recorded: did not affect the percentage of apoptotic events; also recorded: did not induce apoptosis | 95 | about as effective as VS1-002 | +++ (excellent (+++, greater than 70% activity)) | 76 | slightly less potent; also recorded: slightly inferior anti-HIV capacity; also recorded: about as effective as VS1-002 | +++ (excellent (+++, greater than 70% activity)) | 103.4 ± 4.0 | – | – |
| ClC(Cn1ncc2c(NCc3ccccc3)ncnc21)c1ccccc1 (stereo not shown) [VS1-010, N-benzyl-1-(2-chloro-2-phenylethyl)-1H-pyrazolo[3,4-d]pyrimidin-4-amine] | increased anti-proliferative capacity compared to 100 μM HU | – | induced apoptosis; also recorded: more proapoptotic; also recorded: slight increase | 89 | active as antivirals; also recorded: good activity against HIV | – | 88 | active as antivirals; also recorded: good activity against HIV | – | 40.9 ± 35.8 | 99 | more anti-proliferative than HU+ddI ([1]; 10 μM, spider graph FIG. 3): 20% |
| OCCNc1nc(NCc2ccccc2)c2cnn(C=Cc3ccccc3)c2n1 [VS1-015] | – | – | – | – | – | – | – | better anti-HIV activity than HU | – | – | – | mitotic index % [1]: 55.4 ± 6.0%; apoptosis % [2]: 63.9 ± 9.2%; HIV quiescent cells (percentage p24 compared to the untreated control) (HIV-1 NL 4.3 [3]): 7.6 ± 2.8%; HIV activated cells (% p24 compared to not treated control) (HIV-1 NL 4.3 [4]; activated T cells): 15.3 ± 2.4%; % viability [5, 6]: 82.0 ± 5.8% |
| CSc1nc(Nc2cccc(Cl)c2)c2cnn(CC(Cl)c3ccccc3)c2n1 (stereo not shown) [VS1-011, N-(3-chlorophenyl)-1-(2-chloro-2-phenylethyl)-6-(methylthio)-1H-pyrazolo[3,4-d]pyrimidin-4-amine] | increased anti-proliferative capacity compared to 100 μM HU | – | induced apoptosis; also recorded: extremely proapoptotic; also recorded: strongly proapoptotic | 80 | active as antivirals | – | 85 | active as antivirals | – | 70.4 ± 16.9 | 100 | increase in apoptotic events compared to the control ([2]; 10 μM, 10 days): 182% |
| Fc1ccc(CNc2ncnc3c2cnn3CC(Cl)c2ccc(Cl)cc2)cc1 (stereo not shown) [VS1-029, 1-[2-chloro-2-(4-chlorophenyl)ethyl]-N-(4-fluorobenzyl)-1H-pyrazolo[3,4-d]pyrimidin-4-amine] | good anti-proliferative capacity (superior to 100 μM HU) | +++ (excellent (+++, greater than 70% activity)) | no more apoptotic than HU; also recorded: slight increase | – | good anti-HIV activity | +++ (excellent (+++, greater than 70% activity)) | – | good anti-HIV activity | +++ (excellent (+++, greater than 70% activity)) | 96.8 ± 4.5 | 95 | more anti-proliferative than HU+ddI ([1]; 10 μM, spider graph FIG. 3): about 20%; inhibition at 10 µM (HIV-1 NL 4.3 [3]): 94%; inhibition at 10 µM (HIV-1 NL 4.3 [4]): 88% |
| CSc1nc(NCCc2ccccc2)c2cnn(C=Cc3ccccc3)c2n1 [VS1-005, 1-styryl-6-methylthio-N-(2-phenylethyl)-1H-pyrazolo[3,4-d]pyrimidin-4-amine] | slightly lower compared to HU | – | did not induce apoptosis; also recorded: no effect on apoptosis; also recorded: did not affect the percentage of apoptotic events | 97 | strong anti-HIV activity; also recorded: same antiviral power | – | – | active also against HIV in activated T cells; also recorded: same antiviral power; also recorded: same antiviral activity | – | 84.3 ± 22.7 | 27 | anti-proliferative capacity less than HU+ddI ([1]; 10 μM, spider graph FIG. 3): 50% |
| CCN(CC)c1nc(SC)nc2c1cnn2CC(Cl)c1ccccc1 (stereo not shown) [VS1-032] | comparable or even greater than HU | – | – | – | – | – | – | – | – | – | – | mitotic index % [1]: 22.0 ± 14.5%; apoptosis % [2]: 131.8 ± 58.6%; HIV quiescent cells (percentage p24 compared to the untreated control) (HIV-1 NL 4.3 [3]): 19.7 ± 7.2%; HIV activated cells (% p24 compared to not treated control) (HIV-1 NL 4.3 [4]; activated T cells): 59.3 ± 8.1%; % viability [5, 6]: 99.1 ± 3.7% |
| CSc1nc(NCCc2ccccc2)c2cnn(CC(Cl)c3ccccc3)c2n1 (stereo not shown) [VS1-004, 1-(2-chloro-2-phenylethyl)-6-(methylthio)-N-(2-phenylethyl)-1H-pyrazolo[3,4-d]pyrimidin-4-amine] | as anti-proliferative as 100 μM HU; also recorded: as effective as HU+ddI; also recorded: as effective as 100 μM HU | +++ (excellent (+++, greater than 70% activity)) | only induced a small apoptotic effect; also recorded: same level; also recorded: slight increase | 93 | good antiviral potency; also recorded: as effective as HU+ddI | +++ (excellent (+++, greater than 70% activity)) | 88 | good antiviral potency; also recorded: as effective as HU+ddI | +++ (excellent (+++, greater than 70% activity)) | 74.9 ± 13.8 | – | – |
